Consider eight compounds from ChEMBL document CHEMBL1201862, “PubChem BioAssay data set” (2004).

Common to all, as to assay: NCI tumour cell line growth inhibition, 48 h
Test [1] has as its system A498.
In test [2] the test system is ACHN.
In test [3] the test system is BT-549.
The subject of test [4] is COLO 205.
Test [5] deals with HCT-15.
Test [6] has as its system KM12.
In test [7] the test system is LOX IMVI.
The subject of test [8] is M14.
Test [9] has as its system Malme-3M.
Test [10] concerns NCI-H522.
The test system of test [11] is OVCAR-3.
Test [12] concerns OVCAR-8.
Test [13] has as its system RXF 393.
The test system of test [14] is SF-295.
Test [15] concerns SF-539.
Test [16] concerns SK-OV-3.
For test [17], the system named is SN12C.
Test [18] has as its system SW-620.
In test [19] the test system is TK-10.
Test [20] has as its system HL-60.

The structures appear in SMILES notation.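 Method: 48-hour compound exposure of cells in 96-well plates, five concentrations, linear interpolation of endpoints. Abbreviation: GI50, concentration required for 50% inhibition of growth.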 The source made the active and inactive calls. No stated cut-off is given here; in the data, active = GI50 up to about 1.1 µM and inactive = higher.

Turning to `Cc1ccc(NC(=O)c2ccccc2C(=O)O)cc1C`, the GI50 was > 100 µM (inactive) in test [1]; > 100 µM (inactive) in [2]; > 100 µM (inactive) in test [3]; > 100 µM (inactive) in test [4]; more than 100 µM in test [5]; > 100 µM (inactive) in [6]. Also, the GI50 in test [7], in [8], in test [9], in test [10], in test [11] and in test [12] was > 100 µM (inactive) throughout. Further, the GI50 in test [13], in test [14], in test [15], in test [16], in test [17] and in test [18] was > 100 µM (inactive) in each case. The GI50 in [19] is > 100 µM (inactive).

As to `COc1cc2cnc(-c3ccccc3)cc2cc1OC`, the GI50 in [1] is 0.252 µM (active); in [2] it was 23.3 µM (inactive); in [3] it was 23.2 µM (inactive); in test [4] it was 20.9 µM (inactive); in test [5], 19 µM; in [20], 20.3 µM (inactive). Moreover, the GI50 in test [6] was 26.9 µM (inactive); in [8] it was 30.7 µM (inactive); in test [9], 27.9 µM (inactive); in test [10], 20 µM (inactive); in [11], 24.3 µM (inactive); in [12], 26.5 µM (inactive). Moreover, the GI50 in test [13] is 37.2 µM (inactive); in test [14] it was 19.5 µM (inactive); in [15], 31.1 µM (inactive); in test [16], 39.7 µM (inactive); in test [17], 3.5 µM (inactive); in [18] it was 32.4 µM (inactive). Besides, the GI50 in test [19] is 25.7 µM (inactive).

With `Clc1c2ncccc2cc2nn[nH]c12`, the GI50 in test [1] is > 100 µM (inactive); in [2], > 100 µM (inactive); in test [3], > 100 µM (inactive); in test [4], > 100 µM (inactive); in [5], more than 100 µM; in test [20], 14.5 µM (inactive). In addition, the GI50 is > 100 µM (inactive) in [6]; > 100 µM (inactive) in test [8]; 79.3 µM (inactive) in test [9]; 33 µM (inactive) in test [10]; > 100 µM (inactive) in test [11]; > 100 µM (inactive) in [12]. Moreover, the GI50 in test [13] is > 100 µM (inactive); in [14], 41 µM (inactive); in test [15] it was > 100 µM (inactive); in [16], > 100 µM (inactive); in test [17], > 100 µM (inactive); in test [18] it was > 100 µM (inactive). For the same compound, the GI50 in [19] was > 100 µM (inactive).

In the case of `C1CCSCCCCSCCCCSCCCCSC1`, the GI50 in test [1] is > 100 µM (inactive); in [2] it was > 100 µM (inactive); in [3], > 100 µM (inactive); in test [4] it was > 100 µM (inactive); in test [5], more than 100 µM; in [6], > 100 µM (inactive). The GI50 in test [7], in [8], in test [10], in test [11], in [12] and in test [13] was > 100 µM (inactive) throughout. For the same compound, the GI50 in test [14], in [15], in [16], in test [17], in [18] and in [19] was > 100 µM (inactive) each time.

`[N-]=[N+]=Nc1ccc2c(c1)Sc1ccccc1N2CCCCN1CCN(Cc2ccc(C(=O)c3ccc(CSCC(N)C(=O)O)cc3)cc2)CC1` (centres undefined): the GI50 in test [1] was 18.5 µM (inactive); in [2], 31.6 µM (inactive); in test [3], 18 µM (inactive); in test [4] it was 13.6 µM (inactive); in test [5], 14.2 µM; in test [20], 6.55 µM (inactive). Also, the GI50 in test [6] is 1.57 µM (inactive); in [7] it was 10.6 µM (inactive); in test [9], > 10 µM (inactive); in test [10], 12.5 µM (inactive); in test [11] it was 26.9 µM (inactive); in [13], 46.7 µM (inactive). The GI50 in test [14] was 18.2 µM (inactive); in test [16] it was > 100 µM (inactive); in [17] it was 31.3 µM (inactive); in test [18], 1.87 µM (inactive); in test [19], 56.2 µM (inactive).

Take `O=C(O)CCc1nc2c(n1Cc1ccccc1)C(=O)c1ccccc1C2=O`: the GI50 in test [1] is > 100 µM (inactive); in test [2] it was > 100 µM (inactive); in [3] it was > 100 µM (inactive); in test [4], 33.9 µM (inactive); in [5], 48.8 µM; in test [20] it was 64 µM (inactive). Further, the GI50 in test [6] is 52.4 µM (inactive); in test [7], 27.2 µM (inactive); in test [8], 21.4 µM (inactive); in test [10] it was 24.3 µM (inactive); in test [11] it was 27.9 µM (inactive); in test [12] it was 49.4 µM (inactive). Also, the GI50 in [13] was 24.9 µM (inactive); in [14], 59.6 µM (inactive); in [15] it was 28.1 µM (inactive); in [16] it was 69.3 µM (inactive); in test [17] it was 44.5 µM (inactive); in test [18], 31.8 µM (inactive). In addition, the GI50 in test [19] was 34.1 µM (inactive).

With `O=C1c2c(Br)sc(Br)c2[C@H]2NC(=S)O[C@@H]12`, the GI50 in test [1] was 23.5 µM (inactive); in [2], 17.7 µM (inactive); in test [3], 16.5 µM (inactive); in test [4], 13.4 µM (inactive); in test [5] it was 4.18 µM; in test [6], 17.9 µM (inactive). Moreover, the GI50 in [7] was 13.9 µM (inactive); in test [8], 14.3 µM (inactive); in test [9], 15.7 µM (inactive); in [10] it was 1.86 µM (inactive); in test [11] it was 7.94 µM (inactive); in test [12] it was 9.82 µM (inactive). In addition, the GI50 is 13.3 µM (inactive) in test [13]; 20.6 µM (inactive) in test [14]; 17.9 µM (inactive) in test [15]; 18.7 µM (inactive) in test [16]; 17.6 µM (inactive) in test [17]; 3.18 µM (inactive) in test [18]. The GI50 in test [19] was 29.6 µM (inactive).

With `Cc1ccc(Nc2cc(=O)[nH]c(=O)[nH]2)cc1CS`, the GI50 was > 100 µM (inactive) in [1]; 77.4 µM (inactive) in test [2]; 58.1 µM (inactive) in test [3]; > 100 µM (inactive) in [4]; more than 100 µM in test [5]; > 100 µM (inactive) in [6]. Further, the GI50 in test [7], in [8], in test [9], in test [10], in test [11] and in test [12] was > 100 µM (inactive) each time. Moreover, the GI50 in [13] is 89.9 µM (inactive); in test [14], > 100 µM (inactive); in [15], > 100 µM (inactive); in test [16], > 100 µM (inactive); in test [17] it was > 100 µM (inactive); in [18] it was > 100 µM (inactive). In addition, the GI50 in test [19] is > 100 µM (inactive).
